Assay results as given in US20230085307A1, “PYRIDAZINONE COMPOUND AND HERBICIDE” (NISSAN CHEMICAL CORPORATION, priority 2019, published 2023).

Experiments:
[1] = system: Japanese bulrush; experiment: Test Example 1: herbicidal activity, application before weed generation under submerged conditions (Table 16, symbol B); assay type: in vivo, Japanese bulrush (Schoenoplectus juncoides); conditions: 320 g/ha applied herbicide
Summary of the method: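 Submerged Wagner pots (alluvial soil, 4 cm water) sown with weed seeds and planted with 2.5-leaf rice seedlings; emulsifiable concentrate diluted in water applied to water surface on sowing day. Held in greenhouse at 25-30 °C; injury scored 0-5 by herbicidal rate after three weeks.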

[2] = system: late watergrass; experiment: Test Example 2: herbicidal activity, application during weed generation under submerged conditions (Table 17, symbol A); assay type: in vivo, late watergrass (Echinochloa oryzicola); conditions: AAH 320 g/ha; application during weed generation, submerged conditions
Summary of the method: (§1)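 3-wk visual-criteria score after one water-surface dose. Emulsion formulation, water-diluted to set rate; applied at 1–2 leaf stage; alluvial soil, 4 cm standing water; seeds co-sown; greenhouse 25–30° C.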

[3] = system: oval-leafed pondweed; experiment: Test Example 2: herbicidal activity, application during weed generation under submerged conditions (Table 17, symbol C); assay type: in vivo, oval-leafed pondweed (Monochoria vaginalis); conditions: AAH 320 g/ha; application during weed generation, submerged conditions
Summary of the method: as §1

[4] = system: Chinese sprangletop; experiment: Test Example 3: herbicidal effect by foliage application, Wagner pot (Table 18, symbol D); assay type: in vivo, chinese sprangletop (Leptochloa chinensis); conditions: for herbicidal effect on D (Chinese sprangletop), rating 0-5: 320 g/ha
Summary of the method: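 Plants were sown in alluvial soil held under 0.1–0.5 cm standing water and grown 14 days in a greenhouse at 25–30 °C. An emulsifiable formulation, water-diluted to the set dose, was then sprayed onto the foliage, and effects were scored three weeks later using previously defined criteria.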

[5] = system: southern crabgrass; experiment: Test Example 4: herbicidal effect by soil treatment (Table 19, symbol F); assay type: in vivo, southern crabgrass (Digitaria ciliaris)
Summary of the method: (§2)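 Step 1: sow seeds in sterilized diluvial soil, cover ~1.5 cm. Step 2: spray diluted emulsion onto soil surface at predetermined rate. Step 3: greenhouse, 25–30° C, three weeks. Step 4: grade effect on each plant by earlier criteria.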

[6] = system: wild oat; experiment: Test Example 4: herbicidal effect by soil treatment (Table 19, symbol I); assay type: in vivo, wild oat (Avena fatua)
Summary of the method: as §2

[7] = system: blackgrass; experiment: Test Example 4: herbicidal effect by soil treatment (Table 19, symbol J); assay type: in vivo, blackgrass (Alopecurus myosuroides)
Summary of the method: as §2

[8] = system: Italian ryegrass; experiment: Test Example 4: herbicidal effect by soil treatment (Table 19, symbol K); assay type: in vivo, Italian ryegrass (Lolium multiflorum)
Summary of the method: as §2

[9] = system: windgrass; experiment: Test Example 4: herbicidal effect by soil treatment (Table 19, symbol L); assay type: in vivo, windgrass (Apera spica-venti)
Summary of the method: as §2

[10] = system: lambsquarters; experiment: Test Example 4: herbicidal effect by soil treatment (Table 19, symbol O); assay type: in vivo, lambsquarters (Chenopodium album)
Summary of the method: as §2

[11] = system: persian speedwell; experiment: Test Example 4: herbicidal effect by soil treatment (Table 19, symbol R); assay type: in vivo, Persian speedwell (Veronica persica)
Summary of the method: as §2

[12] = system: barnyard grass; experiment: Test Example 5: herbicidal effect by foliage application, plastic box (Table 20, symbol H); assay type: in vivo, barnyard grass (Echinochloa crus-galli); conditions: foliage application, 320 g/ha; for herbicidal effect grade, H: barnyard grass: three weeks after application
Summary of the method: (§3)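 Foliar spray test: emulsion formulation diluted in water to a set application rate, sprayed onto 14-day-old plants raised in diluvial soil at 25° C to 30° C under glass. Both herbicidal effect and crop effect rated visually three weeks later.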

[13] = system: wild oat; experiment: Test Example 5: herbicidal effect by foliage application, plastic box (Table 20, symbol I); assay type: in vivo, wild oat (Avena fatua); conditions: foliage application, 320 g/ha; for herbicidal effect grade, I: wild oat: three weeks after application
Summary of the method: as §3

[14] = system: windgrass; experiment: Test Example 5: herbicidal effect by foliage application, plastic box (Table 20, symbol L); assay type: in vivo, windgrass (Apera spica-venti); conditions: foliage application, 320 g/ha; for herbicidal effect grade, L: windgrass: three weeks after application
Summary of the method: as §3

[15] = system: velvetleaf; experiment: Test Example 5: herbicidal effect by foliage application, plastic box (Table 20, symbol M); assay type: in vivo, velvetleaf (Abutilon theophrasti); conditions: foliage application, 320 g/ha; for herbicidal effect grade, M: velvetleaf: three weeks after application
Summary of the method: as §3

[16] = system: lambsquarters; experiment: Test Example 5: herbicidal effect by foliage application, plastic box (Table 20, symbol O); assay type: in vivo, lambsquarters (Chenopodium album); conditions: foliage application, 320 g/ha; for herbicidal effect grade, O: lambsquarters: three weeks after application
Summary of the method: as §3

[17] = system: persian speedwell; experiment: Test Example 5: herbicidal effect by foliage application, plastic box (Table 20, symbol R); assay type: in vivo, Persian speedwell (Veronica persica); conditions: foliage application, 320 g/ha; for herbicidal effect grade, R: persian speedwell: three weeks after application
Summary of the method: as §3

[18] = amount of applied herbicide 320 g/ha
[19] = evaluated three weeks after application

| Structure (SMILES) | Herbicidal effect on B: Japanese bulrush (grade 0-5) [1] | herbicidal effect rating, A: late watergrass [2] | herbicidal effect rating, C: oval-leafed pondweed [3] | herbicidal effect on D (Chinese sprangletop), rating 0-5 [4] | herbicidal effect rating, F: southern crabgrass [5, 18] | herbicidal effect rating, I: wild oat [6, 18] | herbicidal effect rating, J: blackgrass [7, 18] | herbicidal effect rating, K: Italian ryegrass [8, 18] | herbicidal effect rating, L: windgrass [9, 18] | herbicidal effect rating, O: lambsquarters [10, 18] | herbicidal effect rating, R: persian speedwell [11, 18] | herbicidal effect grade, H: barnyard grass [12] | herbicidal effect grade, I: wild oat [13] | herbicidal effect grade, L: windgrass [14] | herbicidal effect grade, M: velvetleaf [15] | herbicidal effect grade, O: lambsquarters [16] | herbicidal effect grade, R: persian speedwell [17] | other results |
| --- | --- | --- | --- | --- | --- | --- | --- | --- | --- | --- | --- | --- | --- | --- | --- | --- | --- | --- |
| CCCC(=O)Oc1c(C)nn(C)c(=O)c1-c1c(-c2cccc(F)c2)sc2ccc(F)cc12 [2-202] | 0 (Herbicidal rate of 5% or less (almost no effect)) | 4 (Herbicidal rate of 70% or more and less than 90%) | 4 (Herbicidal rate of 70% or more and less than 90%) | – | – | – | – | – | – | – | – | – | – | – | – | – | – | herbicidal effect on D: Chinese sprangletop [4, 18]: 5 (Herbicidal rate of 90% or more (almost completely withered)); F: southern crabgrass, herbicidal effect rating [5, 18]: 2 (Herbicidal rate of 20% or more and less than 40%); I: wild oat, herbicidal effect rating [6, 18]: 0 (Herbicidal rate of 5% or less (almost no effect)); J: blackgrass, herbicidal effect rating [7, 18]: 0 (Herbicidal rate of 5% or less (almost no effect)); K: Italian ryegrass, herbicidal effect rating [8, 18]: 1 (Herbicidal rate of 5% or more and less than 20%); L: windgrass, herbicidal effect rating [9, 18]: 0 (Herbicidal rate of 5% or less (almost no effect)); O: lambsquarters, herbicidal effect rating [10, 18]: 5 (Herbicidal rate of 90% or more (almost completely withered)); R: persian speedwell, herbicidal effect rating [11, 18]: 4 (Herbicidal rate of 70% or more and less than 90%); herbicidal effect on H: barnyard grass (criteria 0-5) [12, 19]: 4 (Herbicidal rate of 70% or more and less than 90%); herbicidal effect on I: wild oat (criteria 0-5) [13, 19]: 1 (Herbicidal rate of 5% or more and less than 20%); herbicidal effect on L: windgrass (criteria 0-5) [14, 19]: 2 (Herbicidal rate of 20% or more and less than 40%); herbicidal effect on M: velvetleaf (criteria 0-5) [15, 19]: 5 (Herbicidal rate of 90% or more (almost completely withered)); herbicidal effect on O: lambsquarters (criteria 0-5) [16, 19]: 4 (Herbicidal rate of 70% or more and less than 90%); herbicidal effect on R: persian speedwell (criteria 0-5) [17, 19]: 4 (Herbicidal rate of 70% or more and less than 90%) |
| Cc1nn(C)c(=O)c(-c2c(-c3ccc(OC4CCCC4)cc3)sc3ccc(F)cc23)c1O [2-039] | 4 (Herbicidal rate of 70% or more and less than 90%) | 0 (Herbicidal rate of 5% or less (almost no effect)) | 2 (Herbicidal rate of 20% or more and less than 40%) | 5 (Herbicidal rate of 90% or more (almost completely withered)) | – | – | – | – | – | – | – | – | – | – | – | – | – | herbicidal effect rating, F: southern crabgrass ([5]; 320 g/ha): 0 (Herbicidal rate of 5% or less (almost no effect)); herbicidal effect rating, I: wild oat ([6]; 320 g/ha): 0 (Herbicidal rate of 5% or less (almost no effect)); herbicidal effect rating, J: blackgrass ([7]; 320 g/ha): 0 (Herbicidal rate of 5% or less (almost no effect)); herbicidal effect rating, K: Italian ryegrass ([8]; 320 g/ha): 0 (Herbicidal rate of 5% or less (almost no effect)); herbicidal effect rating, L: windgrass ([9]; 320 g/ha): 0 (Herbicidal rate of 5% or less (almost no effect)); herbicidal effect rating, O: lambsquarters ([10]; 320 g/ha): 0 (Herbicidal rate of 5% or less (almost no effect)); herbicidal effect rating, R: persian speedwell ([11]; 320 g/ha): 4 (Herbicidal rate of 70% or more and less than 90%); effect on barnyard grass (H) ([12]; 3 weeks after application): 5 (Herbicidal rate of 90% or more (almost completely withered)); effect on wild oat (I) ([13]; 3 weeks after application): 4 (Herbicidal rate of 70% or more and less than 90%); effect on windgrass (L) ([14]; 3 weeks after application): 5 (Herbicidal rate of 90% or more (almost completely withered)); effect on velvetleaf (M) ([15]; 3 weeks after application): 3 (Herbicidal rate of 40% or more and less than 70%); effect on lambsquarters (O) ([16]; 3 weeks after application): 5 (Herbicidal rate of 90% or more (almost completely withered)); effect on persian speedwell (R) ([17]; 3 weeks after application): 5 (Herbicidal rate of 90% or more (almost completely withered)) |
| Cc1nn(C)c(=O)c(-c2c(-c3ccc(C#N)cc3)sc3ccccc23)c1O [Compound No. 1-045, 5-hydroxy-2,6-dimethyl-4-(2-(4-cyanophenyl)benzo[b]thiophen-3-yl)pyridazin-3(2H)-one] | 4 (Herbicidal rate of 70% or more and less than 90%) | 1 (Herbicidal rate of 5% or more and less than 20%) | 4 (Herbicidal rate of 70% or more and less than 90%) | 4 (Herbicidal rate of 70% or more and less than 90%) | 4 (Herbicidal rate of 70% or more and less than 90%) | 0 (Herbicidal rate of 5% or less (almost no effect)) | 0 (Herbicidal rate of 5% or less (almost no effect)) | 5 (Herbicidal rate of 90% or more (almost completely withered)) | 0 (Herbicidal rate of 5% or less (almost no effect)) | 5 (Herbicidal rate of 90% or more (almost completely withered)) | 5 (Herbicidal rate of 90% or more (almost completely withered)) | 4 (Herbicidal rate of 70% or more and less than 90%) | 3 (Herbicidal rate of 40% or more and less than 70%) | 0 (Herbicidal rate of 5% or less (almost no effect)) | 5 (Herbicidal rate of 90% or more (almost completely withered)) | 5 (Herbicidal rate of 90% or more (almost completely withered)) | 5 (Herbicidal rate of 90% or more (almost completely withered)) | – |
| COc1ccc(-c2sc3ccccc3c2-c2c(O)c(C)nn(C)c2=O)cc1OC [1-072] | 3 (Herbicidal rate of 40% or more and less than 70%) | 2 (Herbicidal rate of 20% or more and less than 40%) | 5 (Herbicidal rate of 90% or more (almost completely withered)) | 5 (Herbicidal rate of 90% or more (almost completely withered)) | 5 (Herbicidal rate of 90% or more (almost completely withered)) | 2 (Herbicidal rate of 20% or more and less than 40%) | 0 (Herbicidal rate of 5% or less (almost no effect)) | 5 (Herbicidal rate of 90% or more (almost completely withered)) | 0 (Herbicidal rate of 5% or less (almost no effect)) | 5 (Herbicidal rate of 90% or more (almost completely withered)) | 5 (Herbicidal rate of 90% or more (almost completely withered)) | 5 (Herbicidal rate of 90% or more (almost completely withered)) | 4 (Herbicidal rate of 70% or more and less than 90%) | 1 (Herbicidal rate of 5% or more and less than 20%) | 5 (Herbicidal rate of 90% or more (almost completely withered)) | 5 (Herbicidal rate of 90% or more (almost completely withered)) | 5 (Herbicidal rate of 90% or more (almost completely withered)) | – |
